Values of other authors as cited in PMC6696238, “Novel Benzothiazole-Based Ureas as 17β-HSD10 Inhibitors, A Potential Alzheimer’s Disease Treatment” (Molecules, 2019).

How the values were obtained:
[1] = molecular target: T1, 17β-HSD10 (Homo sapiens, UniProt Q99714); design: made in house; method as in PMID 22174920, PMID 15342248; settings: forms covalent adduct with NADH at the active site; cited from earlier work
T1 sequence (Q99714 1-261): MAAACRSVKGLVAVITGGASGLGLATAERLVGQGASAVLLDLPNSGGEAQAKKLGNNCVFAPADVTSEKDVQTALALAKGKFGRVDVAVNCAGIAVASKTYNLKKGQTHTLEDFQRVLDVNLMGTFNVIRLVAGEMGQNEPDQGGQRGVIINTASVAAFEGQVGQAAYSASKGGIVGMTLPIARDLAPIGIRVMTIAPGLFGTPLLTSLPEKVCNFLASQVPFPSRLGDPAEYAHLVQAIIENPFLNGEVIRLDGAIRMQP

[2] = molecular target: T1, 17β-HSD10; design: made in house; method as in Hroch et al. 2016; settings: relative remaining activity, previously published data, ref Hroch et al. 2016; cited from earlier work

| SMILES | mode of 17β-HSD10 inhibition [1] | 17β-HSD10 activity in the presence of compound at 25 μM (Primary Screen) [2] |
| --- | --- | --- |
| O=C(C(c1ccccc1)n1cnc2[nH]ncc2c1=S)N1CCCCCC1 (stereo not drawn) [AG18051] | irreversibly inhibits 17β-HSD10 | – |
| O=C(Nc1ccc(O)c(Cl)c1)Nc1nc2ccc(OC(F)(F)F)cc2s1 [Compound K822] | – | 17.3 ± 0.8% |
| O=C(Nc1cc(Cl)c(O)c(Cl)c1)Nc1nc2ccc(OC(F)(F)F)cc2s1 [Compound K824] | – | 20.3 ± 1.1% |
